Results as given in US12404283B2, “c-MYC mRNA translation modulators and uses thereof in the treatment of cancer” (Anima Biotech Inc., priority 2022, dated 2025).

Test system: c-Myc
Test: c-Myc immunofluorescence assay
Assay type: cell-based, human
Settings: A549 cells, 24 hours treatment, anti-c-Myc immunofluorescence
Outline: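 High-content imaging (20×) of PFA-fixed A549 cells immunostained for c-Myc with DAPI nuclei, after 24 h compound treatment at increasing concentrations. Per-cell c-Myc signal in identified cell regions was plotted against dose and fitted by logistic regression to give EC50.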

| Compound | Myc Efficacy (−LogEC50) |
| --- | --- |
| CNC(=O)c1ccc(-c2cn3c(n2)sc2cc(C(=O)NCCCN4CCCCC4)ncc23)cc1 [compound 406, 2-(4-(methylcarbamoyl)phenyl)-N-(3-(piperidin-1-yl)propyl)imidazo[2′,1′:2,3] thiazolo[4,5-c]pyridine-7-carboxamide] | ++ (++ ≥5 and <6) |
| O=C(NCCCN1CCCCC1)c1ccc2c(c1)sc1nc(-c3ccc([C@H]4CCCN4)cc3)cn12 [compound 412, (R)-N-(3-(piperidin-1-yl)propyl)-2-(4-(pyrrolidin-2-yl)phenyl)benzo[d]imidazo [2,1-b]thiazole-7-carboxamide] | +++ (+++ ≥6) |
| O=C(NCCCN1CCCCC1)c1ccc2c(c1)sc1nc(-c3ccc([C@@H]4CCCN4)cc3)cn12 [compound 413, (S)-N-(3-(piperidin-1-yl)propyl)-2-(4-(pyrrolidin-2-yl)phenyl)benzo[d]imidazo [2,1-b]thiazole-7-carboxamide] | +++ (+++ ≥6) |
| CCN(CC)CCCNC(=O)c1ccc2c(c1)sc1nc(-c3ccc([C@H]4CCCN4)cc3)cn12 [compound 414, (R)-N-(3-(diethylamino)propyl)-2-(4-(pyrrolidin-2-yl)phenyl)benzo[d]imidazo [2,1-b]thiazole-7-carboxamide] | +++ (+++ ≥6) |
| CCN(CC)CCCNC(=O)c1ccc2c(c1)sc1nc(-c3ccc([C@@H]4CCCN4)cc3)cn12 [compound 415, (S)-N-(3-(diethylamino)propyl)-2-(4-(pyrrolidin-2-yl)phenyl)benzo[d]imidazo [2,1-b]thiazole-7-carboxamide] | +++ (+++ ≥6) |
| O=C(NCCCN1CCCCC1)c1ccc2c(c1)sc1nc(-c3ccc(C4CCCN4)cc3F)cn12 (centres unmarked) [compound 416, 2-(2-fluoro-4-(pyrrolidin-2-yl)phenyl)-N-(3-(piperidin-1-yl)propyl)benzo[d]imidazo [2,1-b]thiazole-7-carboxamide] | +++ (+++ ≥6) |
| O=C(NCCCN1CCCCC1)c1ccc2c(c1)sc1nc(-c3ccc([C@H]4CCCN4)cc3F)cn12 [compound 417, (R)-2-(2-fluoro-4-(pyrrolidin-2-yl)phenyl)-N-(3-(piperidin-1-yl)propyl)benzo[d]imidazo [2,1-b]thiazole-7-carboxamide] | +++ (+++ ≥6) |
| O=C(NCCCN1CCCCC1)c1ccc2c(c1)sc1nc(-c3ccc([C@@H]4CCCN4)cc3F)cn12 [compound 418, (S)-2-(2-fluoro-4-(pyrrolidin-2-yl)phenyl)-N-(3-(piperidin-1-yl)propyl)benzo[d]imidazo [2,1-b]thiazole-7-carboxamide] | +++ (+++ ≥6) |
| O=C(NCCCN1CCC(F)CC1)c1ccc2c(c1)sc1nc(-c3ccc([C@H]4CCCN4)cc3F)cn12 [compound 419, (R)-2-(2-fluoro-4-(pyrrolidin-2-yl)phenyl)-N-(3-(4-fluoropiperidin-1-yl)propyl)benzo[d]imidazo [2,1-b]thiazole-7-carboxamide] | +++ (+++ ≥6) |
| O=C(NCCCN1CCC(F)CC1)c1ccc2c(c1)sc1nc(-c3ccc([C@@H]4CCCN4)cc3F)cn12 [compound 420, (S)-2-(2-fluoro-4-(pyrrolidin-2-yl)phenyl)-N-(3-(4-fluoropiperidin-1-yl)propyl)benzo[d]imidazo [2,1-b]thiazole-7-carboxamide] | +++ (+++ ≥6) |
| O=C(NCCCN1CCCCC1)c1ccc2c(c1)sc1nc(-c3ccc([C@H]4CCCN4)cc3F)nn12 [compound 421, (R)-2-(2-fluoro-4-(pyrrolidin-2-yl)phenyl)-N-(3-(piperidin-1-yl)propyl)benzo[4,5]thiazolo [3,2-b][1,2,4]triazole-6-carboxamide] | ++ (++ ≥5 and <6) |
| O=C(NCCCN1CCCCC1)c1ccc2c(c1)sc1nc(-c3ccc([C@@H]4CCCN4)cc3F)nn12 [compound 422, (S)-2-(2-fluoro-4-(pyrrolidin-2-yl)phenyl)-N-(3-(piperidin-1-yl)propyl)benzo[4,5]thiazolo [3,2-b][1,2,4]triazole-6-carboxamide] | +++ (+++ ≥6) |
| O=C(NCCCN1CCC(F)CC1)c1ccc2c(c1)sc1nc(-c3ccc(C4(O)COC4)cc3F)cn12 [compound 425] | +++ (+++ ≥6) |
| O=C(NCCCN1CCC(F)CC1)c1ccc2c(c1)sc1nc(-c3cc4c(cc3F)CNC4)cn12 [compound 454, 2-(6-fluoroisoindolin-5-yl)-N-(3-(4-fluoropiperidin-1-yl)propyl)benzo[d]imidazo [2,1-b]thiazole-7-carboxamide] | +++ (+++ ≥6) |
| O=C(NCCCN1CCC(F)CC1)c1ccc2c(c1)sc1nc(-c3c(F)cc(C4CCCN4)cc3C3CC3)cn12 (centres unmarked) [compound 475, 2-(2-cyclopropyl-6-fluoro-4-(pyrrolidin-2-yl)phenyl)-N-(3-(4-fluoropiperidin-1-yl)propyl)benzo[d]imidazo[2,1-b]thiazole-7-carboxamide] | ++ (++ ≥5 and <6) |
| O=C(NCCCN1CCC(F)CC1)c1ccc2c(c1)sc1nc(-c3cc(F)c(C4CCCN4)cc3F)cn12 (centres unmarked) [compound 477, 2-(2,5-difluoro-4-(pyrrolidin-2-yl)phenyl)-N-(3-(4-fluoropiperidin-1-yl)propyl)benzo[d]imidazo[2,1-b]thiazole-7-carboxamide] | +++ (+++ ≥6) |
| O=C(NCCCN1CCC(F)CC1)c1ccc2c(c1)sc1nc(-c3ccc(-c4ncc[nH]4)cc3F)cn12 [compound 482, 2-(2-fluoro-4-(1H-imidazol-2-yl)phenyl)-N-(3-(4-fluoropiperidin-1-yl)propyl)benzo[d]imidazo[2,1-b]thiazole-7-carboxamide] | +++ (+++ ≥6) |
| O=C(NCCCN1CCC(F)CC1)c1ccc2c(c1)sc1nc(-c3cc(F)c(C4CCCN4)c(Cl)c3)cn12 (centres unmarked) [compound 485, 2-(3-chloro-5-fluoro-4-(pyrrolidin-2-yl)phenyl)-N-(3-(4-fluoropiperidin-1-yl)propyl)benzo[d]imidazo[2,1-b]thiazole-7-carboxamide] | +++ (+++ ≥6) |
| O=C1CCCC(c2ccc(-c3cn4c(n3)sc3cc(C(=O)NCCCN5CCC(F)CC5)ccc34)c(F)c2)N1 (centres unmarked) [compound 486] | ++ (++ ≥5 and <6) |
| O=C(NCCCN1CCC(F)CC1)c1ccc2c(c1)sc1nc(-c3ccc(-c4ccn[nH]4)cc3F)cn12 [compound 487, 2-(2-fluoro-4-(1H-pyrazol-5-yl)phenyl)-N-(3-(4-fluoropiperidin-1-yl)propyl)benzo[d]imidazo[2,1-b]thiazole-7-carboxamide] | ++ (++ ≥5 and <6) |
| COc1cc(-c2cn3c(n2)sc2cc(C(=O)NCCCN4CCC(F)CC4)ccc23)c(F)cc1C1CCCN1 (centres unmarked) [compound 489, 2-(2-fluoro-5-methoxy-4-(pyrrolidin-2-yl)phenyl)-N-(3-(4-fluoropiperidin-1-yl)propyl)benzo[d]imidazo[2,1-b]thiazole-7-carboxamide] | ++ (++ ≥5 and <6) |
| Cc1cc(-c2cn3c(n2)sc2cc(C(=O)NCCCN4CCC(F)CC4)ccc23)ccn1 [compound 495, N-(3-(4-fluoropiperidin-1-yl)propyl)-2-(2-methylpyridin-4-yl)benzo[d]imidazo[2,1-b]thiazole-7-carboxamide] | +++ (+++ ≥6) |
| NC(=O)c1ccc2c(c1)sc1nc(-c3ccc([C@@H]4C[C@H](O)CN4)cc3F)cn12 [compound 520, 2-(2-fluoro-4-((2S,4S)-4-hydroxypyrrolidin-2-yl)phenyl)benzo[d]imidazo[2,1-b]thiazole-7-carboxamide] | ++ (++ ≥5 and <6) |
